Assays:
Assay in all cases: relative viability (nuclei count vs DMSO), 5 days (fraction); higher = more cells survive
[1] = compound: C1CN(CCN1)C2=CC=C(C=C2)C3=CN4C(=C(C=N4)C5=CC=NC6=CC=CC=C56)N=C3 [DM3189] + Nc1nc2[nH]cc(CCc3ccc(C(=O)N[C@@H](CCC(=O)O)C(=O)O)cc3)c2c(=O)[nH]1 [Pemetrexed] (partner 0.2 µM)
Method in brief: (§1)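 Relative viability was taken as the ratio of nuclei in treated wells to nuclei in vehicle wells. Lung cancer cell lines in 1536-well plates received compounds by pin tool one day after seeding, either one drug alone or a fixed anchor-drug dose plus five library-drug doses (not always all listed) in √10 steps. Nuclei were counted on 4× images after 5 days of treatment, and values are medians of duplicate plates.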

[2] = compound: C1CN(CCN1)C2=CC=C(C=C2)C3=CN4C(=C(C=N4)C5=CC=NC6=CC=CC=C56)N=C3 [DM3189] + COc1cc2c(Oc3ccc(NC(=O)C4(C(=O)Nc5ccc(F)cc5)CC4)cc3F)ccnc2cc1OCCCN1CCOCC1 [Foretinib] (partner 0.25 µM)
Method in brief: as §1

[3] = compound: C1CN(CCN1)C2=CC=C(C=C2)C3=CN4C(=C(C=N4)C5=CC=NC6=CC=CC=C56)N=C3 [DM3189] + CC1(C)CCC(c2ccc(Cl)cc2)=C(CN2CCN(c3ccc(C(=O)NS(=O)(=O)c4ccc(N[C@H](CCN5CCOCC5)CSc5ccccc5)c(S(=O)(=O)C(F)(F)F)c4)cc3)CC2)C1 [Navitoclax] (partner 0.5 µM)
Method in brief: as §1

[4] = compound: C1CN(CCN1)C2=CC=C(C=C2)C3=CN4C(=C(C=N4)C5=CC=NC6=CC=CC=C56)N=C3 [DM3189] + COc1cccc2cc(-c3nc([C@H]4CC[C@H](C(=O)O)CC4)n4ncnc(N)c34)[nH]c12 [OSI-027] (partner 0.5 µM)
Method in brief: as §1

[5] = compound: C1CN(CCN1)C2=CC=C(C=C2)C3=CN4C(=C(C=N4)C5=CC=NC6=CC=CC=C56)N=C3 [DM3189] + Cc1cc(Nc2cc(N3CCN(C)CC3)nc(Sc3ccc(NC(=O)C4CC4)cc3)n2)n[nH]1 [Tozasertib] (partner 0.1 µM)
Method in brief: as §1

Row | Cell Line | relative viability ([1]; first compound 0.08 µM) | relative viability ([1]; first compound 0.253 µM) | relative viability ([1]; first compound 0.8 µM) | relative viability ([1]; first compound 2.53 µM) | relative viability ([2]; first compound 0.08 µM) | relative viability ([2]; first compound 0.253 µM) | relative viability ([2]; first compound 0.8 µM) | relative viability ([2]; first compound 2.53 µM) | relative viability ([3]; first compound 0.08 µM) | relative viability ([3]; first compound 0.253 µM) | relative viability ([3]; first compound 0.8 µM) | relative viability ([3]; first compound 2.53 µM) | relative viability ([4]; first compound 0.08 µM) | relative viability ([4]; first compound 0.253 µM) | relative viability ([4]; first compound 0.8 µM) | relative viability ([4]; first compound 2.53 µM) | relative viability ([5]; first compound 0.08 µM) | relative viability ([5]; first compound 0.253 µM) | relative viability ([5]; first compound 0.8 µM) | relative viability ([5]; first compound 2.53 µM)
1 | NCI-H23 | 0.759 | 0.635 | 0.641 | 0.676 | 1.01 | 0.861 | 0.882 | 0.982 | 0.917 | 0.794 | 0.742 | 0.741 | 0.664 | 0.594 | 0.457 | 0.577 | 0.291 | 0.389 | 0.296 | 0.376
2 | NCI-H322M | 0.64 | 0.582 | 0.557 | 0.501 | 0.942 | 0.944 | 0.886 | 0.774 | 1.33 | 1.25 | 1.28 | 1.52 | 0.622 | 0.596 | 0.541 | 0.506 | 0.481 | 0.427 | 0.448 | 0.404
3 | NCI-H441 | 0.3 | 0.243 | 0.295 | 0.287 | 1.01 | 0.726 | 1.24 | 0.702 | 0.567 | 0.431 | 0.615 | 0.62 | 0.747 | 0.602 | 0.451 | 0.486 | 0.943 | 0.57 | 0.681 | 0.738
4 | NCI-H460 | 0.0522 | 0.0522 | 0.0641 | 0.0646 | 0.951 | 1.03 | 0.995 | 1.34 | 1.2 | 1.18 | 0.996 | 0.904 | 1.12 | 0.72 | 0.598 | 0.549 | 0.384 | 0.393 | 0.12 | 0.277
5 | NCI-H520 | 0.603 | 0.492 | 0.49 | 0.296 | 0.713 | 0.554 | 0.62 | 0.631 | 1 | 0.728 | 0.752 | 0.628 | 0.281 | 0.232 | 0.237 | 0.232 | 0.491 | 0.33 | 0.364 | 0.313
6 | NCI-H596 | 0.49 | 0.442 | 0.512 | 0.477 | 1.12 | 0.955 | 0.695 | 1.06 | 1.01 | 1.09 | 0.917 | 1.06 | 0.799 | 0.746 | 0.615 | 0.643 | 0.826 | 0.869 | 0.937 | 0.92
7 | NCI-H647 | 0.185 | 0.178 | 0.173 | 0.146 | 1.06 | 1.13 | 1.08 | 1.01 | 1.26 | 0.959 | 0.767 | 0.657 | 0.724 | 0.579 | 0.585 | 0.528 | 0.259 | 0.212 | 0.408 | 0.235
8 | NCI-H838 | 0.238 | 0.255 | 0.239 | 0.22 | 0.951 | 0.891 | 0.689 | 0.895 | 1.15 | 1.09 | 0.904 | 1.23 | 0.427 | 0.376 | 0.312 | 0.357 | 0.256 | 0.249 | 0.255 | 0.281
9 | NCI-H1355 | 1.03 | 0.986 | 0.821 | 1.03 | 0.987 | 0.968 | 0.91 | 0.979 | 0.926 | 0.953 | 0.819 | 0.951 | 0.482 | 0.36 | 0.366 | 0.39 | 0.547 | 0.55 | 0.513 | 0.438
10 | NCI-H1395 | 1.13 | 0.786 | – | 0.806 | 0.896 | 0.929 | 0.831 | 1.03 | 1.22 | 0.958 | 0.74 | 1.17 | 0.709 | 0.572 | 0.54 | 0.6 | 0.69 | 0.689 | 0.697 | 0.799
11 | NCI-H1437 | 0.34 | 0.333 | 0.326 | 0.293 | 1.29 | 1.33 | 1.33 | 1.33 | 0.994 | 1.1 | 1.06 | 1.05 | 0.895 | 0.862 | 0.906 | 1.08 | 0.396 | 0.369 | 0.379 | 0.397
12 | NCI-H1650 | 0.311 | 0.347 | 0.351 | 0.37 | 1.04 | 1.18 | 1.21 | 1.12 | 1.24 | 1.11 | 1.21 | 1.13 | 0.715 | 0.658 | 0.468 | 0.524 | 0.322 | 0.362 | 0.389 | 0.377
13 | NCI-H1651 | 0.729 | 0.556 | 0.553 | 0.541 | 0.83 | 0.716 | 0.831 | 0.827 | 1.17 | 1.13 | 1.13 | 0.928 | 0.783 | 0.626 | 0.864 | 0.727 | 0.704 | 0.722 | 0.628 | 0.649
14 | NCI-H1666 | 1 | 0.818 | 0.844 | – | 1.02 | 0.97 | 1.02 | 0.93 | 1.11 | 1.09 | 0.895 | 1.17 | 1.01 | 0.941 | 1.1 | 1.01 | 0.602 | 0.648 | 0.737 | 0.565
15 | NCI-H1734 | 0.438 | 0.4 | 0.353 | 0.352 | 0.888 | 0.829 | 0.756 | 0.823 | 0.903 | 0.81 | 0.774 | 0.844 | 0.684 | 0.572 | 0.592 | 0.565 | 0.28 | 0.266 | 0.228 | 0.22
